Patent publication EP4775582A1, “MACROCYCLIC COMPOUND AND ANTIBODY-DRUG CONJUGATE THEREOF” (Genfleet Therapeutics (Shanghai) Inc., priority 2023, dated 2025)
pIC50: −log10 of the molar value.

Assays:
Assay type in all cases: cell-based, human
[1] = test system: AsPC-1 cells; assay: 3D cell proliferation assay (CellTiter Glo-3D), AsPC-1; settings: Homo sapiens, ASPC1, 120 h, read-out: AsPC-1 AP IC50(nM)
Protocol: (§1) The cells were digested with trypsin (containing EDTA), collected in their respective low-serum complete media containing 2% FBS (for MIA Paca-2 cell culture: DMEM + 2% FBS + 0.5% Horse serum + 1% PS), and counted. After the cell density was adjusted as required, 200 MIA PaCa-2 cells, 800 AsPC-1 cells, 800 NCI-H441 cells, or 400 NCI-H1975 cells per well were seeded into a 384-well cell culture plate, with the volume of the medium in each well being 45 µL. The cell culture plate was incubated in an incubator at 37 °C with 5% CO2 overnight. […] On the day after cell seeding, 5 µL of the 10× compound stock solution was added to each cell culture well. […] In addition to the compound-treated wells described above, cell-containing DMSO control wells (with 5 µL of the complete medium containing 1% DMSO added to each well) and cell-free medium control wells (containing 50 µL of the complete medium with 2% FBS) were also set. The culture plate was incubated in an incubator at 37 °C with 5% CO2 for another 5 days, and then 30 µL of CellTiter-Glo working solution was added to each well. The mixture was well mixed, incubated for 30 min, left to stand at room temperature for 30 min, and then transferred to a white-bottomed, opaque 384-well assay plate at 40 µL/well. […] Using an XLfit software, the IR (%) values were plotted against the logarithm of the compound concentrations, and the dose-response curves were fitted using the four-parameter method to calculate the IC50 values.

[2] = test system: H441 p-ERK; assay: Cell p-ERK assay (HTRF), NCI-H441 cells; settings: NCI-H441 cells (KRAS G12V), 3 h incubation
Protocol: (§2) The cells were digested with trypsin (containing EDTA), collected in their corresponding complete media, and counted. The density of the cell suspensions was adjusted with their corresponding complete media, and 10000 AsPC-1 cells or 20000 NCI-H441 cells per well were seeded into a 96-well cell culture plate, with the volume of the medium in each well being 80 µL. The cell culture plate was incubated in an incubator at 37 °C with 5% CO2 overnight. […] On the day after cell seeding, 20 µL of the 5× compound stock solution was added to each cell culture well. […] In addition to the compound-treated wells described above, cell-containing DMSO control wells were also set. A complete medium containing 0.5% DMSO was added at 20 µL/well. After the mixture was well mixed, the culture plate was incubated in the incubator at 37 °C with 5% CO2 for another 3 h. The medium was then removed from the culture wells, and 50 µL of cell lysis buffer (from Advance ERK phospho-T202/Y204 kit) was added to each well. The mixture was well mixed and incubated for 30 min. Then, 16 µL of the mixture was transferred to a white-bottomed, opaque 96-well assay plate, and separately, 16 µL of cell lysis buffer was added to additional wells (serving as blank wells) in the assay plate. After the transfer was completed, 4 µL of p-ERK HTRF antibody mixture (from Advance ERK phospho-T202/Y204 kit) was added to each well of the assay plate, followed by a 4-hour incubation. […] Using an XLfit software, the IR (%) values were plotted against the logarithm of the compound concentrations, and the dose-response curves were fitted using the four-parameter method to calculate the IC50 values.

[3] = test system: AsPC-1 p-ERK; assay: Cell p-ERK assay (HTRF), AsPC-1 cells; settings: Homo sapiens, ASPC1, 3 h, read-out: AsPC-1 p-ERK IC50(nM)
Protocol: as §2

[4] = test system: NCI-H441 cells; assay: 3D cell proliferation assay (CellTiter Glo-3D), NCI-H441; settings: Homo sapiens, 120 h, NCI-H441 cells (KRAS G12V), 2% FBS, 5 days, read-out: H441 AP IC50
Protocol: as §1

Compound	IC50 [1]	pIC50 ([2]; Homo sapiens)	IC50 [3]	pIC50 [4]	pIC50 [2]
CCn1c(-c2cc(C#CCN3CCS(=O)(=O)CC3)cnc2[C@H](C)OC)c2c3cc(ccc31)-c1csc(n1)C[C@H](Nc1n[nH]c3cc(C)ccc13)C(=O)N1CCC[C@H](N1)C(=O)OCC(C)(C)C2 (atropisomer, axis not shown; (Ra)) [Compound Z171, (6^3S,4S,Z)-(Ra)-1^2-(5-(3-(1,1-dioxidothiomorpholino)prop-1-yn-1-yl)-2-((S)-1-methoxyethyl)pyridin-3-yl)-1^1-ethyl-10,10-dimethyl-4-((6-methyl-1H-indazol-3-yl)amino)-6^1,6^2,6^3,6^4,6^5,6^6-hexahydro-1^1H-8-oxa-2(4,2)-thiazola-1(5,3)-indola-6(1,3)-pyridazinacycloundecaphane-5,7-dione]	1.36 nM	9.28	0.97 nM	8.56	–
CCn1c(-c2cc(C#CCN3CCS(=O)(=O)CC3)cnc2[C@H](C)OC)c2c3cc(ccc31)-c1csc(n1)C[C@H](NC(=O)[C@@H](N)C1CCCC1)C(=O)N1CCC[C@H](N1)C(=O)OCC(C)(C)C2 (atropisomer, axis not shown; (Ra)) [Compound Z14, (2S)-2-amino-2-cyclopentyl-N-((6^3S,4S,Z)-(Ra)-1^2-(5-(3-(1,1-dioxidothiomorpholino)prop-1-yn-1-yl)-2-((S)-1-methoxyethyl)pyridin-3-yl)-1^1-ethyl-10,10-dimethyl-5,7-dioxo-6^1,6^2,6^3,6^4,6^5,6^6-hexahydro-1^1H-8-oxa-2(4,2)-thiazola-1(5,3)-indola-6(1,3)-pyridazinacycloundecaphane-4-yl)acetamide]	–	9.39	0.45 nM	–	–
CCn1c(-c2cc(C#CCN3CCS(=O)(=O)CC3)cnc2[C@H](C)OC)c2c3cc(ccc31)-c1cc(N)cc(c1)C[C@H](NC(=O)C(C(C)C)N(C)C(=O)[C@@H]1CN(C(=O)OC)C[C@@H]1C)C(=O)N1CCC[C@H](N1)C(=O)OCC(C)(C)C2 (atropisomer, axis not shown; (Ra)) [Compound Z62]	–	–	–	–	8.50
COCCn1c(-c2cc(C#CCN3CCN(C(=O)CO)CC3)cnc2[C@H](C)OC)c2c3cc(ccc31)-c1csc(n1)C[C@H](NC(=O)[C@H]1[C@@H]3COC[C@@H]31)C(=O)N1CCC[C@H](N1)C(=O)OCC(C)(C)C2 (atropisomer, axis not shown) [Compound Z31, (1R,5S,6r)-N-((6^3S,4S,Z)-1^2-(5-(3-(4-(2-hydroxyacetyl)piperazin-1-yl)prop-1-yn-1-yl)-2-((S)-1-methoxyethyl)pyridin-3-yl)-1^1-(methoxyethyl)-10,10-dimethyl-5,7-dioxo-6^1,6^2,6^3,6^4,6^5,6^6-hexahydro-1^1H-8-oxa-2(4,2)-thiazola-1(5,3)-indola-6(1,3)-pyridazinacycloundecaphane-4-yl)-3-oxabicyclo[3.1.0]hexane-6-carboxamide]	–	8.62	–	–	–
CCn1c(-c2cc(C#CCN3CCS(=O)(=O)CC3)cnc2[C@H](C)OC)c2c3cc(ccc31)-c1csc(n1)C[C@H](NC(=O)[C@@H](NC)C(C)C)C(=O)N1CCC[C@H](N1)C(=O)OCC(C)(C)C2 (atropisomer, axis not shown) [Compound Z4, (2S)-N-((6^3S,4S,Z)-1^2-(5-(3-(1,1-dioxidothiomorpholin-4-yl)prop-1-yn-1-yl)-2-((S)-1-methoxyethyl)pyridin-3-yl)-1^1-ethyl-10,10-dimethyl-5,7-dioxo-6^1,6^2,6^3,6^4,6^5, 6^6-hexahydro-1^1H-8-oxa-2(4,2)-thiazola-1(5,3)-indola-6(1,3)-pyridazinacycloundecaphane-4-yl)-3-methyl-2-(methylamino)butanamide]	–	9.28	0.52 nM	–	–

Now from value to compound:

IC50 [1]	pIC50 ([2]; Homo sapiens)	IC50 [3]	pIC50 [4]	pIC50 [2]	Compound
–	8.84	–	–	–	CCn1c(-c2cc(C#CCN3CCCOCC3)cnc2[C@H](C)OC)c2c3cc(ccc31)-c1csc(n1)C[C@H](NC1=NOC(C)(C(C)C)C1)C(=O)N1CCC[C@H](N1)C(=O)OCC(C)(C)C2 (atropisomer, axis not shown; (Ra)) [Compound Z280, (6^3S,4S,Z)-(Ra)-1^2-(5-(3-(1,4-oxazepan-4-yl)prop-1-yn-1-yl)-2-((S)-1-methoxyethyl)pyridin-3-yl)-1^1-ethyl-10,10-dimethyl-4-((5-isopropyl-5-methyl-4,5-dihydroisoxazol-3-yl)amino)-6^1,6^2,6^3,6^4,6^5,6^6-hexahydro-1^1H-8-oxa-2(4,2)-thiazola-1(5,3)-indola-6(1,3)-pyridazinacycloundecaphane-5,7-dione]
–	8.66	5.8 nM	–	–	CCn1c(-c2cc(C#CCN3CCCOCC3)cnc2[C@H](C)OC)c2c3cc(ccc31)-c1csc(n1)C[C@H](NC1=NOC(C)(C)C1)C(=O)N1CCC[C@H](N1)C(=O)OCC(C)(C)C2 (atropisomer, axis not shown; (Ra)) [Compound Z172-1, (6^3S,4S,Z)-(Ra)-1^2-(5-(3-(1,4-oxazepan-4-yl)prop-1-yn-1-yl)-2-((5)-1-methoxyethyl)pyridin-3-yl)-1^1-ethyl-10,10-dimethyl-4-((5,5-dimethyl-4,5-dihydroisoxazol-3-yl)amino)-6^1,6^2,6^3,6^4,6^5,6^6-hexahydro-1^1H-8-oxa-2(4,2)-thiazola-1(5,3)-indola-6(1,3)-pyridazinacycloundecaphane-5,7-dione]
–	8.58	6.03 nM	–	–	CCn1c(-c2cc(C#CCN3CCCOCC3)cnc2[C@H](C)OC)c2c3cc(ccc31)-c1csc(n1)C[C@H](NC1=NOC3(CCOCC3)C1)C(=O)N1CCC[C@H](N1)C(=O)OCC(C)(C)C2 (atropisomer, axis not shown) [Compound Z175, (6^3S,4S,Z)-1^2-(5-(3-(1,4-oxazepan-4-yl)prop-1-yn-1-yl)-2-((S)-1-methoxyethyl)pyridin-3-yl)-4-((1,8-dioxa-2-azaspiro[4.5]dec-2-en-3-yl)amino)-1^1-ethyl-10,10-dimethyl-6^1,6^2,6^3,6^4,6^5,6^6-hexahydro-1^1H-8-oxa-2(4,2)-thiazola-1(5,3)-indola-6(1,3)-pyridazinacycloundecaphane-5,7-dione]
4.87 nM	8.52	–	8.52	–	CCn1c(-c2cc(C#CCN3CCCOCC3)cnc2[C@H](C)OC)c2c3cc(ccc31)-c1csc(n1)C[C@H](NC1=NOC(C)(C3CC3)C1)C(=O)N1CCC[C@H](N1)C(=O)OCC(C)(C)C2 (atropisomer, axis not shown; (Ra)) [Compound Z281, (6^3S,4S,Z)-(Ra)-1^2-(5-(3-(1,4-oxazepan-4-yl)prop-1-yn-1-yl)-2-((S)-1-methoxyethyl)pyridin-3-yl)-1^1-ethyl-10,10-dimethyl-4-((5-cyclopropyl-5-methyl-4,5-dihydroisoxazol-3-yl)amino)-6^1,6^2,6^3,6^4,6^5,6^6-hexahydro-1^1H-8-oxa-2(4,2)-thiazola-1(5,3)-indola-6(1,3)-pyridazinacycloundecaphane-5,7-dione]
–	8.52	–	–	–	CCn1c(-c2cc(C#CCN3CCCOCC3)cnc2[C@H](C)OC)c2c3cc(ccc31)-c1csc(n1)C[C@H](NC1=NOC(C)(CC)C1)C(=O)N1CCC[C@H](N1)C(=O)OCC(C)(C)C2 (atropisomer, axis not shown) [Compound Z173, (6^3S,4S,Z)-1^2-(5-(3-(1,4-oxazepan-4-yl)prop-1-yn-1-yl)-2-((S)-1-methoxyethyl)pyridin-3-yl)-1^1-ethyl-10,10-dimethyl-4-((5-ethyl-5-methyl-4,5-dihydroisoxazol-3-yl)amino)-6^1,6^2,6^3,6^4,6^5,6^6-hexahydro-1^1H-8-oxa-2(4,2)-thiazola-1(5,3)-indola-6(1,3)-pyridazinacycloundecaphane-5,7-dione]
